In patent US20150017636A1, “Detection and Monitoring of Macrocyclic Lactone Resistance in Nematodes” (priority 2013, published 2015):
Like-named read-outs stand apart in the source and are kept apart here.

How the values were obtained:
[1] = tested on: Haemonchus contortus; details: cited from earlier work
[2] = tested on: C. elegans IVR10 strain; experiment: Rescue of Dyf7 gene in IVR10: ivermectin sensitivity of transgenic worms on NGM plates; assay type: in vivo, Caenorhabditis elegans; details: Dyf7 ttx 1 and Dyf7 ttx 2 strains (IVR10 with wildtype Dyf7 transgene), 6 ng/mL ivermectin, plated as eggs, scored at two days
Experimental: FIG. 2 illustrates the rescue of Dyf7 gene in C. elegans IVR10 strain. Effect of Dyf7 rescued (strains Dyf7 ttx 1 and Dyf7 ttx 2) on ivermectin sensitivity. Strains “ttx ctrl 1” and “ttx ctrl 2” contain only the ttx-3:GFP transgenic marker. Results are shown as the percentage of growth of transgenic nematodes (as measured by GFP expression) in function of the type of transgenic nematode and treatment.
The wild-type Bristol N2 C. elegans strain was cultured in nematode growth medium (NGM) with OP50 Escherichia coli under standard conditions (Brenner, 1974). The IVR6 and IVR10 resistant strains to ivermectin were derived from Bristol N2, by successive increasing concentrations of ivermectin (James and Davey, 2009). […]
Genomic DNA extracted from C. elegans C43C3 cosmid (provided by the Sanger Institute, UK) was used to amplify the Dyf7 gene using the primers Dyf7-CeB-sense-5′-[…]-3′ (SEQ ID NO: 3) and Dyf7-CeB-antisense-5′-CTCATTTCTGGTCAAACG-3′ (SEQ ID NO: 4). […] The worms were separated into transgenic and non-transgenic based on GFP expression (green channel) and then each population scored for resistance phenotype.
To determine if the Dyf7 rescuing fragment rescues the ivermectin-sensitivity phenotype of IVR10, each strain was plated, as eggs, onto NGM plates containing 6 ng/mL ivermectin and DMSO control plates. At two days, the L4 and adult worms were scored for presence of the transgene. […]

ivermectin
IVM Drug Phenotype ([1]; isolate 1202, Brazil): Resistant
IVM Drug Phenotype ([1]; isolate CRA, RSA): Susceptible
IVM Drug Phenotype ([1]; isolate Cedara, RSA): Resistant
IVM Drug Phenotype ([1]; isolate Coruzu, Argentina): Resistant
IVM Drug Phenotype ([1]; isolate F15, Brazil): Resistant
IVM Drug Phenotype ([1]; isolate Haecon, Australia): Resistant
IVM Drug Phenotype ([1]; isolate Howick, RSA): Resistant
IVM Drug Phenotype ([1]; isolate ISE, UK): Susceptible
IVM Drug Phenotype ([1]; isolate Kokstad, RSA): Resistant
IVM Drug Phenotype ([1]; isolate MOF23, USA): Moderate Resistant
IVM Drug Phenotype ([1]; isolate MOF23-9*, USA, 23 generations of moxidectin selection): Resistant
IVM Drug Phenotype ([1]; isolate PF23, USA): Susceptible
IVM Drug Phenotype ([1]; isolate PF23-24, USA): Susceptible
IVM Drug Phenotype ([1]; isolate Rog-gliswil, Switzerland): Resistant
IVM Drug Phenotype ([1]; isolate SUL, Uruguay): Resistant
IVM Drug Phenotype ([1]; isolate Sorin, France): Susceptible
IVM Drug Phenotype ([1]; isolate Wallangra 85, Australia): Susceptible
IVM Drug Phenotype ([1]; isolate Yallanbee, Australia): Susceptible
IVM phenotype of the strain ([1]; strain IVF23, ivermectin selected from the PF strain): resistant
growth of transgenic worms (escape from L1 arrest, L4 and adult worms scored for the transgene) [2]: no transgenic worms that escaped L1 arrest
